In patent EP4692090A1 (Shanghai Fosun Pharmaceutical (Group) Co., Ltd., priority 2023, dated 2024):
Like-named read-outs stand apart in the source and are kept apart here.

Key:
LoVo cells = test: LoVo cell proliferation assay (CellTiter-Glo); type: cell-based; details: maximum concentration 10 µM, 9 concentrations
Procedure: Test Example 2: LoVo cell proliferation assay
LoVo (ATCC, #CRL-229) cells in logarithmic growth phase were digested, counted, and plated into 96-well cell culture plates at 2,000 cells per well. The plates containing cells were incubated overnight at 37°C in a 5% CO2 incubator, and then test compounds with 3-fold gradient dilutions (maximum concentration: 10 µM, 9 concentrations) were added. DMSO was used as a blank control. After the LoVo cells containing the compounds or DMSO were incubated for an additional 5 days, an equal volume of CellTiter-Glo reagent (Promega, #7573) was added. After incubation at room temperature for 30 minutes, chemiluminescence was read using an Envision 2105 (PerkinElmer). The cell proliferation inhibition rate (%) for wells treated with each concentration of the compounds was calculated using the following formula. Then, with compound concentration as the horizontal axis and cell proliferation inhibition rate (%) as the vertical axis, GraphPad software was used to plot the data and determine the IC50 values of the test compounds. The results are shown in Table 2, wherein the IC50 ranges are defined as follows: A: ≤ 100 nM; 1000 nM ≥ B > 100 nM; C > 1000 nM.
Cell proliferation inhibition (%) = (1 - luminescence value of compound-treated group / average luminescence value of DMSO blank control group) × 100. Table 2. Inhibitory effect of compounds on LoVo growth

ATR kinase = molecular target: T1, ATR kinase (Homo sapiens, UniProt Q13535); test: Inhibitory effect on ATR kinase activity (Caliper mobility shift, FAM-labeled RAD17 peptide substrate); type: biochemical
T1 construct: purchased Eurofins 14-953
T1 sequence (Q13535 whole entry): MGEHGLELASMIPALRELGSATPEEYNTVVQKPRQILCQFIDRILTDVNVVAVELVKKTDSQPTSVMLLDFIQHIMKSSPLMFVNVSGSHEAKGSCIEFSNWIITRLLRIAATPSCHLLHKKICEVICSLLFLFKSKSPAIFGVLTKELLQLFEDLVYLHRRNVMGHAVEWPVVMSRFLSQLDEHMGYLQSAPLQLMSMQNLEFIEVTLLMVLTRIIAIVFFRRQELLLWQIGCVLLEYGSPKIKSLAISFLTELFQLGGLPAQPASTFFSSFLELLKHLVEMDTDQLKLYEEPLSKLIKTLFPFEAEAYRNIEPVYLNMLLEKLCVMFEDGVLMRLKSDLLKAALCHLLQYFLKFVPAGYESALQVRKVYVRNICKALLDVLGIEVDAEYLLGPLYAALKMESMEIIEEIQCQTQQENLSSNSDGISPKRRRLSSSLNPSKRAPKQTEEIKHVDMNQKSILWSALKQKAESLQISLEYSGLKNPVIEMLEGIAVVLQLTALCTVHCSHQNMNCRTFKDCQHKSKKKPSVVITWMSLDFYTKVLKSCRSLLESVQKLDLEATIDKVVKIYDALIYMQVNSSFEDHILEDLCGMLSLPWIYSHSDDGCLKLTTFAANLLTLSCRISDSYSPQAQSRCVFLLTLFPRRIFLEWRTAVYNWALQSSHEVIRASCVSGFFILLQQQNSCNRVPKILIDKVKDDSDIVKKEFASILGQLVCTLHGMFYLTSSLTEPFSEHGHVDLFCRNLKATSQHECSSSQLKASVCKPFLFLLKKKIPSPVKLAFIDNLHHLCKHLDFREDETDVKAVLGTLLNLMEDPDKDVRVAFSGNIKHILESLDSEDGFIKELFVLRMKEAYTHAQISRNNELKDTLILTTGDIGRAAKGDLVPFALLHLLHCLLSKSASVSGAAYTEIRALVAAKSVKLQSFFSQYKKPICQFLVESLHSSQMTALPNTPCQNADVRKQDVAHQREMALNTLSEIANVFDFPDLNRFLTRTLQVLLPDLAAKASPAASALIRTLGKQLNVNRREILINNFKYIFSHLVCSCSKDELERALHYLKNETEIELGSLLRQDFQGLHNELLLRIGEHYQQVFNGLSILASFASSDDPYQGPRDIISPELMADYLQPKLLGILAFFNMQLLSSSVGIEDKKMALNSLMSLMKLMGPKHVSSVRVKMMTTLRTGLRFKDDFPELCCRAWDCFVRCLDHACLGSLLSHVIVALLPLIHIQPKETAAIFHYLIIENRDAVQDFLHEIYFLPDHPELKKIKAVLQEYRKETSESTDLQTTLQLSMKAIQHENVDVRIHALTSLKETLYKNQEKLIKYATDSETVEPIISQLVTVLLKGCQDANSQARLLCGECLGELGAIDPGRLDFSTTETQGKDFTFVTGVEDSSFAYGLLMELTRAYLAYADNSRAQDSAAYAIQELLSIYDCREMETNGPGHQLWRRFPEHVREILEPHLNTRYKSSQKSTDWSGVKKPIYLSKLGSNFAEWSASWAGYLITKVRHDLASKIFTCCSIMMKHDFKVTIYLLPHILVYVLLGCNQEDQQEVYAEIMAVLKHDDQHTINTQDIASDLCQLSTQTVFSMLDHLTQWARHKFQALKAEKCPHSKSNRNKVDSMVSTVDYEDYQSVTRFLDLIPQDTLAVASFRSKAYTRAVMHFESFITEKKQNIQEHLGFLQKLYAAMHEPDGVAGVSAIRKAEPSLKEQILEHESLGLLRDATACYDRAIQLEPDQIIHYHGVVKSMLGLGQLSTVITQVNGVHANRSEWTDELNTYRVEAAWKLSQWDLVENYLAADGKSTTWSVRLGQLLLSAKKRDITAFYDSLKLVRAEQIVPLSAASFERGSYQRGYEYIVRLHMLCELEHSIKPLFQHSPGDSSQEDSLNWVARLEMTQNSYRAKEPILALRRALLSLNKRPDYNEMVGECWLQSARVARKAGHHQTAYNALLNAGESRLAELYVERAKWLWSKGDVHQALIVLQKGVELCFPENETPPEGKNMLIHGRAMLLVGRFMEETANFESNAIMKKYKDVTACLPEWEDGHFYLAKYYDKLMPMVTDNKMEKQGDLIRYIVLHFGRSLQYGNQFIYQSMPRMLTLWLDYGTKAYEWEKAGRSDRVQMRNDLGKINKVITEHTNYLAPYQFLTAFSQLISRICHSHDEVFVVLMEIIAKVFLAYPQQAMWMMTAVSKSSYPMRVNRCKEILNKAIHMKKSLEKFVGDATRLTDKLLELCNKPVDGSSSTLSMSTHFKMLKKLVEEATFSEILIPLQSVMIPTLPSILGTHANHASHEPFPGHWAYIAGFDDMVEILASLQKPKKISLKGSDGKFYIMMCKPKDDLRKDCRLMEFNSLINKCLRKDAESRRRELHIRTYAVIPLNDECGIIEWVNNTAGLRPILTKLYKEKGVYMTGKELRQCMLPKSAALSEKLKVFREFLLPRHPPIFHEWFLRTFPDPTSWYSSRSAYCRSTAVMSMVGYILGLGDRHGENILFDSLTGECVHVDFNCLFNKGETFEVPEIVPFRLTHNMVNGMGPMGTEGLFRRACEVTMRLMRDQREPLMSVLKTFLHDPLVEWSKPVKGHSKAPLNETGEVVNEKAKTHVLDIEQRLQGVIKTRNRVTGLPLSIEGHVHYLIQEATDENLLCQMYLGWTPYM
T1 sequence (Q8WXE1 whole entry partner): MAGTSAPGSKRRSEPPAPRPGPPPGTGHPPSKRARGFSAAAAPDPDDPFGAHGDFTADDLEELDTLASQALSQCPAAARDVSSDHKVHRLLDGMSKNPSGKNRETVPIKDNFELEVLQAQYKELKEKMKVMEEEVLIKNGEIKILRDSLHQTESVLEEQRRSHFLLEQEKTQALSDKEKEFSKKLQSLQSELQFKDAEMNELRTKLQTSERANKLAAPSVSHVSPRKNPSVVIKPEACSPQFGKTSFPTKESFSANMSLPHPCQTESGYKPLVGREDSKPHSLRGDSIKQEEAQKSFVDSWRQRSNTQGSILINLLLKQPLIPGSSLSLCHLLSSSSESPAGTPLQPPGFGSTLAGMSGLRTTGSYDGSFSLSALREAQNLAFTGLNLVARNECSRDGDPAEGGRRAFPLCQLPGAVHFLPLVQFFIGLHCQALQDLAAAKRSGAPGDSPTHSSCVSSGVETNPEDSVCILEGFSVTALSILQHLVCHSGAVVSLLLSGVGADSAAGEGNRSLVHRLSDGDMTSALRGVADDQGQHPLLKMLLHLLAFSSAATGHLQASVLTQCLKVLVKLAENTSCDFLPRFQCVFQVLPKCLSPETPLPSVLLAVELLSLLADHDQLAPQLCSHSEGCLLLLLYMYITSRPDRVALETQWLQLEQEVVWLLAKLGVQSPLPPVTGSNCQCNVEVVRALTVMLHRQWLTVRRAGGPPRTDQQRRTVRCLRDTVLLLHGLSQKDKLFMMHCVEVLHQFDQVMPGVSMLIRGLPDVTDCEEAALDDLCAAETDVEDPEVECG
Procedure: Test Example 1: Inhibitory effect of the compounds of the present disclosure on ATR kinase activity
Test compounds to be tested were serially diluted with DMSO (maximum concentration 1 µM, 10 concentrations with 3-fold serial dilution) and added to the wells of a 384-well reaction plate (Corning, #4512). 1 nM ATR kinase (Eurofins, #14-953), 5 mM substrate (FAM-labeled RAD17 peptide, FAM-ASELPASQPQPFSAKKK), 5 mM ATP and the compounds with corresponding concentrations reacted in a kinase reaction solution (50 mM HEPES, pH 7.5; 0.0015% Brij-35; 10 mM MnCl2, total volume of 20 µL) at 28°C for 3 hours. The reaction was terminated by adding 30 µL of stop solution (100 mM HEPES, pH 7.5; 0.015% Brij-35; 0.2% Coating Reagent #3, PerkinElmer; 50 mM EDTA). The reaction plate was placed on a Caliper instrument (PerkinElmer) for testing. The relative inhibitory activity of each compound concentration group was calculated using the following formula: % Inhibition = (Conversion rate of the blank control group without compound added - Conversion rate of the test compound group) / (Conversion rate of the blank control group - […]). The IC50 values were calculated using GraphPad analysis and fitted. […] Table 1. Inhibitory effect (IC50) of compounds on ATR kinase activity.

[1] = LoVo cells, 2,000 cells per well, 5 days incubation, CellTiter-Glo, read-out: LoVo IC50
[2] = 1 nM ATR kinase (Eurofins), 28°C for 3 hours, maximum concentration 1 µM, 10 concentrations, read-out: ATR kinase IC50
[3] = Homo sapiens, LoVo, 120 h, read-out: LoVo IC50 (nM), LoVo cells, 2,000 cells per well, 5 days incubation, CellTiter-Glo
[4] = read-out: ATR kinase IC50, 1 nM ATR kinase (Eurofins), 28°C for 3 hours, maximum concentration 1 µM, 10 concentrations
[5] = Homo sapiens, LoVo, 120 h, LoVo cells, 2,000 cells per well, 5 days incubation, CellTiter-Glo, read-out: LoVo IC50

Compound	IC50 (LoVo cells; [1]) [nM]	IC50 (ATR kinase; [2]) [nM]	IC50 (LoVo cells; [5]) [nM]	other results
CC1c2cc(N3CCOC[C@H]3C)nc3c2c(nn3-c2cc[nH]n2)CCN1S(C)(=O)=O (single isomer, unassigned) [Compound 39A]	< 100	< 10		
CC1c2cc(N3CCOC[C@H]3C)nc3c2c(nn3-c2cc[nH]n2)CCN1S(C)(=O)=O (single isomer, unassigned) [Compound 39B]	> 1000	< 10		
CC1c2cc(N3CCOC[C@H]3C)nc3c2c(nn3-c2cc[nH]n2)CCN1C(=O)C1(C#N)CC1 (single isomer, unassigned) [Compound 40A]				IC50 (LoVo cells; [3]): 100 to 1000 nM; IC50 (ATR kinase; [4]): < 10 nM
CC1c2cc(N3CCOC[C@H]3C)nc3c2c(nn3-c2cc[nH]n2)CCN1C(=O)C1(C#N)CC1 (single isomer, unassigned) [Compound 40B]				IC50 (LoVo cells; read-out: LoVo IC50, LoVo cells, 2,000 cells per well, 5 days incubation, CellTiter-Glo): 100 to 1000 nM; IC50 (ATR kinase; [4]): 10 to 100 nM
CCN1CCc2nn(-c3cc[nH]n3)c3nc(N4CCOC[C@H]4C)cc(c23)C1C (single isomer, unassigned) [Compound 41A]		< 10	< 100	
CCN1CCc2nn(-c3cc[nH]n3)c3nc(N4CCOC[C@H]4C)cc(c23)C1C (single isomer, unassigned) [Compound 41B]	< 100	< 10		
CC1c2cc(N3CCOC[C@H]3C)nc3c2c(nn3-c2cc[nH]n2)CCN1C1(C#N)CC1 (single isomer, unassigned) [Compound 42A]		< 10	< 100	
CC1c2cc(N3CCOC[C@H]3C)nc3c2c(nn3-c2cc[nH]n2)CCN1C1(C#N)CC1 (single isomer, unassigned) [Compound 42B]	< 100	10 to 100		
CC1c2cc(N3CCOC[C@H]3C)nc3c2c(nn3-c2cc[nH]n2)CCN1CC1COC1 (single isomer, unassigned) [Compound 44A]		10 to 100	100 to 1000	
CC1c2cc(N3CCOC[C@H]3C)nc3c2c(nn3-c2cc[nH]n2)CCN1S(C)(=N)=O (single isomer, unassigned) [Compound 46C]	< 100	< 10		
[2H]C([2H])([2H])N1CCc2nn(-c3cc[nH]n3)c3nc(N4CCOC[C@H]4C)cc(c23)C1C (single isomer, unassigned) [Compound 47A]		< 10	< 100	
[2H]C([2H])([2H])N1CCc2nn(-c3cc[nH]n3)c3nc(N4CCOC[C@H]4C)cc(c23)C1C (single isomer, unassigned) [Compound 47B]	< 100	< 10		
CCS(=O)(=O)N1CCc2nn(-c3cc[nH]n3)c3nc(N4CCOC[C@H]4C)cc(c23)C1C (single isomer, unassigned) [Compound 48A]		10 to 100	100 to 1000	
CCS(=O)(=O)N1CCc2nn(-c3cc[nH]n3)c3nc(N4CCOC[C@H]4C)cc(c23)C1C (single isomer, unassigned) [Compound 48B]	< 100	< 10		
CC1c2cc(N3CCOC[C@H]3C)nc3c2c(nn3-c2cc[nH]n2)CCN1S(=O)(=O)C1(C)CC1 (single isomer, unassigned) [Compound 49A]		< 10	< 100	
CC1c2cc(N3CCOC[C@H]3C)nc3c2c(nn3-c2cc[nH]n2)CCN1S(=O)(=O)C1(C)CC1 (single isomer, unassigned) [Compound 49B]	100 to 1000	10 to 100		
CC(C)C1(O)CCn2nc(-c3cc[nH]n3)c3nc(N4CCOC[C@H]4C)cc1c32 (single isomer, unassigned) [Compound 72A]	> 1000	100 to 1000		
CC(C)C1(O)CCn2nc(-c3cc[nH]n3)c3nc(N4CCOC[C@H]4C)cc1c32 (single isomer, unassigned) [Compound 72B]	100 to 1000	100 to 1000		

Compound	IC50 (LoVo cells; [1]) [nM]	IC50 (ATR kinase; [2]) [nM]	IC50 (LoVo cells; [5]) [nM]	other results
C[C@@H]1COCCN1c1cc2c3c(nn(-c4cc[nH]n4)c3n1)CCN(S(C)(=O)=O)C2C1CC1 (single isomer, unassigned) [Compound 138A]		< 10	100 to 1000	
C[C@@H]1COCCN1c1cc2c3c(nn(-c4cc[nH]n4)c3n1)CCN(S(C)(=O)=O)C2C1CC1 (single isomer, unassigned) [Compound 138B]	< 100	< 10		
CC(C)C1c2cc(N3CCOC[C@H]3C)nc3c2c(nn3-c2cc[nH]n2)CCN1C (single isomer, unassigned) [Compound 141A]		< 10	< 100	
CC(C)C1c2cc(N3CCOC[C@H]3C)nc3c2c(nn3-c2cc[nH]n2)CCN1C (single isomer, unassigned) [Compound 141B]	< 100	< 10		
C[C@@H]1COCCN1c1cc2c3c(nn(-c4cc[nH]n4)c3n1)CCN(C)C2C1CC1 (single isomer, unassigned) [Compound 142A]		< 10	< 100	
C[C@@H]1COCCN1c1cc2c3c(nn(-c4cc[nH]n4)c3n1)CCN(C)C2C1CC1 (single isomer, unassigned) [Compound 142B]	< 100	< 10		
CCC1c2cc(N3CCOC[C@H]3C)nc3c2c(nn3-c2cc[nH]n2)CCN1S(C)(=O)=O (single isomer, unassigned) [Compound 144A]		< 10	100 to 1000	
CCC1c2cc(N3CCOC[C@H]3C)nc3c2c(nn3-c2cc[nH]n2)CCN1S(C)(=O)=O (single isomer, unassigned) [Compound 144B]	< 100	< 10		
CCC1c2cc(N3CCOC[C@H]3C)nc3c2c(nn3-c2cc[nH]n2)CCN1S(=O)(=O)C1CC1 (single isomer, unassigned) [Compound 145A]		10 to 100	100 to 1000	
CCC1c2cc(N3CCOC[C@H]3C)nc3c2c(nn3-c2cc[nH]n2)CCN1S(=O)(=O)C1CC1 (single isomer, unassigned) [Compound 145B]	100 to 1000	< 10		
CC1c2cc(N3CCOC[C@H]3C)nc3c2c(nn3-c2cc[nH]n2)CCN1S(=O)(=O)C1CC1F (single isomer, unassigned) [Compound 151A]		< 10	< 100	
CC1c2cc(N3CCOC[C@H]3C)nc3c2c(nn3-c2cc[nH]n2)CCN1S(=O)(=O)C1CC1F (single isomer, unassigned) [Compound 151B]	< 100	< 10		
CC1c2cc(N3CCOC[C@H]3C)nc3c2c(nn3-c2cc[nH]n2)CCN1S(=O)(=O)C1CC1F (single isomer, unassigned) [Compound 151C]	100 to 1000	10 to 100		
CC1c2cc(N3CCOC[C@H]3C)nc3c2c(nn3-c2cc[nH]n2)CCN1S(=O)(=O)C1CC1F (single isomer, unassigned) [Compound 151D]	100 to 1000	100 to 1000		
CN=S(C)(=O)N1CCc2nn(-c3cc[nH]n3)c3nc(N4CCOC[C@H]4C)cc(c23)C1C (single isomer, unassigned) [Compound 152A]		< 10	< 100	
CN=S(C)(=O)N1CCc2nn(-c3cc[nH]n3)c3nc(N4CCOC[C@H]4C)cc(c23)C1C (single isomer, unassigned) [Compound 152B]	100 to 1000	10 to 100		
C[C@@H]1COCCN1c1cc2c3c(nn(-c4cc[nH]n4)c3n1)CCNC2 [Compound 1, (R)-4-(2-(1H-pyrazol-3-yl)-6,7,8,9-tetrahydro-2H-1,2,3,7-tetraazabenzo[cd]azulen-4-yl)-3-methylmorpholine]				IC50 (LoVo cells; [3]): 100 to 1000 nM; IC50 (ATR kinase; ATR kinase IC50 (nM), 1 nM ATR kinase (Eurofins), 28°C for 3 hours, maximum concentration 1 µM, 10 concentrations): 100 to 1000 nM
CC(C)N1CCc2nn(-c3cc[nH]n3)c3nc(N4CCOC[C@H]4C)cc(c23)C1 [Compound 2]		10 to 100	100 to 1000	
